{
  "source": "patent US12391701B2",
  "about": "“Chromene-based compounds, methods and uses thereof” (University of Minho, priority 2019, dated 2025)",
  "key": {"Caki-2 parental cells": {"tested_on": "Caki-2 parental cells", "experiment": "BrdU proliferation assay, Caki-2 parental", "type": "cell-based", "settings": "24 and 48 hours, IC50 and ½IC50"}, "[1]": {"tested_on": "Caki-2 cediranib-resistant cells", "experiment": "BrdU proliferation assay, Caki-2 cediranib-resistant", "type": "cell-based", "settings": "24 and 48 hours; IC50 and ½IC50; drug-resistant"}, "[2]": {"tested_on": "TNBC cell line MDA-MB-468", "experiment": "Cell viability assay (MTS), MDA-MB-468", "type": "cell-based", "settings": "Homo sapiens, 72 h incubation", "description": "In an embodiment, for a comparison study, monomers and respective dimers were selected and further evaluated in Hs578t and MDA-MB-468 breast cell lines. […] These cell lines correspond to the basal-like subtype of breast cancer, included in the known triple negative subtype, since they are negative for Estrogen receptor (ER), progesterone receptor (PR) and Human epidermal growth factor receptor 2 (HER2) molecular markers. The clinical behaviour of these breast cancer subtype is very aggressive and there is still no specific molecular therapy available.\n(§1) In an embodiment, three human breast cancer cell lines Hs578T, MDA-MB-468 and MCF-7, and a normal breast cell line MCF-10A, were obtained from ATCC (American Type Culture Collection). The cancer cell lines were cultured in Dulbecco's modified Eagle medium, 4.5 g/l glucose (DMEM, Gibco) supplemented with 10% heating inactivated Fetal Bovine Serum (FBS, Gibco) and 1% antibiotic solution (Penicillin-Streptomycin, Gibco). The normal cell line was cultured in Dulbecco's Modified Eagle Medium: Nutrient Mixture F-12 (DMEM/F12, Gibco) supplemented with 5% heating inactivated FBS (Gibco), 1% antibiotic solution (Penicillin-Streptomycin, Gibco), 1% steroid hormone (Hydrocortisone, Sigma-Aldrich), 0.1% peptide hormone (Insulin, Sigma-Aldrich) and 0.01% protein complex (Cholera Toxin, Gibco). Two distinct human acute myeloid leukemia (AML) cell lines, HL-60 (FAB M2) and KG-1 (erythroleukemia-FAB M6), and one human lymphoblastic leukemia (ALL) cell line, Jurkat (T cell type), were also used. These three cell lines were obtained from German Collection of Microorganisms and Cell cultures (DMSZ®, Deutsche Sammlung von Mikroorganismen and Zellkulturen in German). Cells were cultured in RPMI 1640 medium (Biochrom®-Merck Millipore) supplemented with 10% heating inactivated FBS (Biochrom®-Merck Millipore) and 1% antibiotic/antimitotic mixture (Invitrogen®). Three human glioblastoma (GBM) cell line models, two established and commercially available cell lines (U87MG and GAMG, kind gift from Rui M. Reis) and one primary GBM culture (GLIB) were also used. GBM cells were cultures in DMEM (Biochrom-Merck Millipore), all supplemented with 10% FBS. The Renal cell carcinoma cell lines A498, 786-O, Caki-2 and HK2 were obtained from ATCC. The cancer cell line A498 was cultured in MEM medium (Biochrom®-Merck Millipore), 786-O was cultured in RPMI 1640 medium (Biochrom®-Merck Millipore), Caki-2 was cultured in Mc Coys medium (Biochrom®-Merck Millipore) and HK2 was cultured in RPMI 1640 medium (Biochrom®-Merck Millipore). All the media were supplemented with 10% heat inactivated FBS (Biochrom®-Merck Millipore) and 1% antibiotic/antimitotic mixture (Invitrogen®). All cells were grown in a humidified incubator at 37° C. and 5% CO2. […]"}, "glioma cell line U87": {"tested_on": "glioma cell line U87", "experiment": "Cell viability MTS assay, U87", "type": "cell-based", "settings": "Homo sapiens, 72 hours", "protocol": "(§2) In an embodiment, the antiproliferative activity of compounds MC408, MC409, MC421 and MC406 was further determined against glioma cell lines (U87, GAMG and GL18) and acute leukemia cell lines (HL-60, KG-1 and Jurkat). This was done in order to evaluate if the compounds presented an equally interesting anticancer profile in other cancer cell models. Cell viability was determined using the MTS assay, after exposure of the cells to the respective compounds for 72 hours at appropriate concentration ranges to determine the respective IC50 values.\nas §1"}, "[3]": {"tested_on": "acute leukemia cell line HL-60", "experiment": "Cell viability MTS assay, HL-60", "type": "cell-based", "settings": "Homo sapiens, 72 hours", "protocol": "as §2, §1"}, "[4]": {"tested_on": "acute leukemia cell line KG-1", "experiment": "Cell viability MTS assay, KG-1", "type": "cell-based", "settings": "Homo sapiens, 72 hours", "protocol": "as §2, §1"}, "Hs578t cells": {"tested_on": "Hs578t cells", "experiment": "Annexin V/PI flow cytometry, Hs578t", "type": "cell-based, human", "settings": "IC50 concentration; 24 h", "description": "In an embodiment, to understand the mechanisms leading to cell death, cells were studied for the induction of apoptosis by flow cytometry. […] Externalization of phosphatidylserine occurs during the early apoptotic events. While annexin V binds to phosphatidylserine, PI stains only cells that have lost their membrane integrity, an experimental procedure which allows the discrimination between viable cells, early apoptotic cells, late apoptotic/necrotic cells or necrotic cells.\nIn an embodiment, MCF-7, Hs578t and 786-O cells were seeded in 6-well culture plates and allowed to adhere over 18-20 hours in a complete DMEM (for MCF-7 and Hs578t cells) and complete RPMI (for 786-O cells) medium to detect apoptosis via flow cytometry analysis. […] Triplicates were performed in each experiment. Floating and adherent cells were collected and combined by centrifugation. Elimination of the supernatant was followed by addition of 1 mL of Binding Buffer. 8 μL FITC annexin V (556419, BD Pharmingen) and 30 μl of PI (50 μg/mL, P1304MP, Invitrogen) were added to the cell pellet. Samples were incubated in the dark for 15 min at room temperature. A further 200 μL of Binding Buffer was added to each sample. PI signal was measured using FACS LSRII flow cytometer (BD Biosciences®) with 488 nm excitation laser. The annexin V signal was collected through a 488 nm blocking filter, a 550 nm long-pass dichroic with a 525 nm band pass. Signals were captured and FACS Diva was used as the acquisition software. The percentage of cells in each phase was analysed using the FlowJo 7.6 (Tree Star®) software. Three independent biological replicates were performed."}, "[5]": {"tested_on": "A498 rapamycin-resistant cells", "experiment": "BrdU proliferation assay, A498 rapamycin-resistant", "type": "cell-based", "settings": "24 and 48 hours, IC50 and ½IC50"}},
  "note": "pIC50: −log10 of the molar value.",
  "data": [
    {"smiles": "COc1cccc2c1Oc1nc(-c3ccccc3)[nH]c1C2", "note": "[MC350, 5-methoxy-2-phenyl-3,9-dihydrochromeno[2,3-d]imidazoles]", "values": [
      {"measurement": "effect on cell proliferation (BrdU)", "setting": "Caki-2 parental cells", "result": "decrease cell proliferation"},
      {"measurement": "effect on cell proliferation (BrdU)", "setting": "[1]", "result": "decrease cell proliferation"}
    ]},
    {"smiles": "COc1cccc2c1Oc1nc(-c3ccc(F)cc3)[nH]c1C2C1c2cccc(OC)c2Oc2nc(-c3ccc(F)cc3)[nH]c21", "note": "(centres unmarked) [MC406, 2,2′-bis(4-fluorophenyl)-5,5′-dimethoxy-1,1,9,9′-tetrahydro-9,9′-bichromeno[2,3-]imidazoles]", "values": [
      {"measurement": "pIC50", "setting": "[2]", "result": 6.49},
      {"measurement": "IC50", "setting": "glioma cell line U87", "result": 0.17, "unit": "µM"},
      {"measurement": "IC50", "setting": "[3]", "result": 0.65, "unit": "µM"},
      {"measurement": "IC50", "setting": "[4]", "result": 1.01, "unit": "µM"},
      {"measurement": "induction of cell death by apoptosis (annexin V/PI)", "setting": "Hs578t cells", "result": "induced cell death by apoptosis"}
    ]},
    {"smiles": "COc1cccc2c1Oc1nc(-c3ccc(Br)cc3)[nH]c1C2", "note": "[MC408, 2-(4-bromophenyl)-5-methoxy-3,9-dihydrochromeno[2,3-d]imidazoles]", "values": [
      {"measurement": "pIC50", "setting": "[2]", "result": 7.57},
      {"measurement": "IC50", "setting": "glioma cell line U87", "result": 1.85, "unit": "µM"},
      {"measurement": "IC50", "setting": "[3]", "result": 0.57, "unit": "µM"},
      {"measurement": "IC50", "setting": "[4]", "result": 0.64, "unit": "µM"},
      {"measurement": "induction of cell death by apoptosis (annexin V/PI)", "setting": "Hs578t cells", "result": "inducing cell death by apoptosis (early apoptosis)"},
      {"measurement": "effect on cell proliferation (BrdU)", "setting": "[5]", "result": "significant decrease in cell proliferation"}
    ]},
    {"smiles": "COc1cccc2c1Oc1nc(-c3ccc(F)cc3)[nH]c1C2", "note": "[MC409, 2-(4-fluorophenyl)-5-methoxy-3,9-dihydrochromeno[2,3-d]imidazoles]", "values": [
      {"measurement": "pIC50", "setting": "[2]", "result": 6.92},
      {"measurement": "IC50", "setting": "glioma cell line U87", "result": 0.37, "unit": "µM"},
      {"measurement": "IC50", "setting": "[3]", "result": 0.65, "unit": "µM"},
      {"measurement": "IC50", "setting": "[4]", "result": 1.02, "unit": "µM"},
      {"measurement": "induction of cell death by apoptosis (annexin V/PI)", "setting": "Hs578t cells", "result": "induced cell death by apoptosis"}
    ]},
    {"smiles": "COc1cccc2c1Oc1nc(-c3ccc(O)cc3)[nH]c1C2", "note": "[MC413, 4-(5-methoxy-3,9-dihydrochromeno[2,3-d]imidazol-2-yl)phenol]", "values": [
      {"measurement": "effect on cell proliferation (BrdU)", "setting": "[5]", "result": "significant decrease in cell proliferation"},
      {"measurement": "effect on cell proliferation (BrdU)", "setting": "Caki-2 parental cells", "result": "decrease cell proliferation"},
      {"measurement": "effect on cell proliferation (BrdU)", "setting": "[1]", "result": "decrease cell proliferation"}
    ]},
    {"smiles": "COc1cccc2c1Oc1nc(-c3ccc(Br)cc3)[nH]c1C2C1c2cccc(OC)c2Oc2nc(-c3ccc(Br)cc3)[nH]c21", "note": "(centres unmarked) [MC421, 2,2′-bis(4-bromophenyl)-5,5′-dimethoxy-1,1,9,9′-tetrahydro-9,9′-bichromeno[2,3-]imidazoles]", "values": [
      {"measurement": "pIC50", "setting": "[2]", "result": 6.36},
      {"measurement": "IC50", "setting": "glioma cell line U87", "result": 0.034, "unit": "µM"},
      {"measurement": "IC50", "setting": "[3]", "result": 0.25, "unit": "µM"},
      {"measurement": "IC50", "setting": "[4]", "result": 0.93, "unit": "µM"},
      {"measurement": "induction of cell death by apoptosis (annexin V/PI)", "setting": "Hs578t cells", "result": "inducing cell death by apoptosis (early apoptosis)"},
      {"measurement": "effect on cell proliferation (BrdU)", "setting": "[5]", "result": "significant decrease in cell proliferation"},
      {"measurement": "effect on cell proliferation (BrdU)", "setting": "Caki-2 parental cells", "result": "decrease cell proliferation"},
      {"measurement": "effect on cell proliferation (BrdU)", "setting": "[1]", "result": "decrease cell proliferation"}
    ]}
  ]
}
